Test results reported in PubChem BioAssay (NCI).
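How tested: cells in 96-well plates exposed to compound for 48 hours at five concentrations. TGI denotes the concentration required for complete inhibition of growth.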

Key:
Test in all cases: inhibition of tumour cell growth, NCI panel, 48 h
A498 renal = tested on: A498 renal
NCI-H226 lung = tested on: NCI-H226 lung
XF 498 CNS = tested on: XF 498 CNS
HL-60(TB) leukemia = tested on: HL-60(TB) leukemia
MOLT-4 leukemia = tested on: MOLT-4 leukemia
M19-MEL melanoma = tested on: M19-MEL melanoma
SNB-78 CNS = tested on: SNB-78 CNS
MALME-3M melanoma = tested on: MALME-3M melanoma
RXF-631 renal = tested on: RXF-631 renal
RPMI-8226 leukemia = tested on: RPMI-8226 leukemia
HCC-2998 colon = tested on: HCC-2998 colon
OVCAR-4 ovarian = tested on: OVCAR-4 ovarian
HCT-116 colon = tested on: HCT-116 colon
CCRF-CEM leukemia = tested on: CCRF-CEM leukemia
HCT-15 colon = tested on: HCT-15 colon
SK-MEL-5 melanoma = tested on: SK-MEL-5 melanoma
HT29 colon = tested on: HT29 colon
HOP-92 NSCLC = tested on: HOP-92 NSCLC
SK-OV-3 ovarian = tested on: SK-OV-3 ovarian
SN12C renal = tested on: SN12C renal
ACHN renal = tested on: ACHN renal
LOX IMVI melanoma = tested on: LOX IMVI melanoma
OVCAR-3 ovarian = tested on: OVCAR-3 ovarian
IGROV1 ovarian = tested on: IGROV1 ovarian
CAKI-1 renal = tested on: CAKI-1 renal
EKVX NSCLC = tested on: EKVX NSCLC
OVCAR-5 ovarian = tested on: OVCAR-5 ovarian
SW-620 colon = tested on: SW-620 colon
A549 NSCLC = tested on: A549 NSCLC
LXFL 529 NSCLC = tested on: LXFL 529 NSCLC
DMS 273 small cell lung = tested on: DMS 273 small cell lung
UACC-62 melanoma = tested on: UACC-62 melanoma
UO-31 renal = tested on: UO-31 renal
M14 melanoma = tested on: M14 melanoma
OVCAR-8 ovarian = tested on: OVCAR-8 ovarian
HOP-18 NSCLC = tested on: HOP-18 NSCLC
SK-MEL-2 melanoma = tested on: SK-MEL-2 melanoma
KM20L2 colon = tested on: KM20L2 colon
U251 CNS = tested on: U251 CNS
NCI-H522 lung = tested on: NCI-H522 lung
SF-539 CNS = tested on: SF-539 CNS
COLO 205 colon = tested on: COLO 205 colon
SF-295 CNS = tested on: SF-295 CNS
NCI-H23 lung = tested on: NCI-H23 lung
KM12 colon = tested on: KM12 colon
DLD-1 colon = tested on: DLD-1 colon
SNB-19 CNS = tested on: SNB-19 CNS
786-0 renal = tested on: 786-0 renal
UACC-257 melanoma = tested on: UACC-257 melanoma
K-562 leukemia = tested on: K-562 leukemia
TK-10 renal = tested on: TK-10 renal
SF-268 CNS = tested on: SF-268 CNS
DMS 114 small cell lung = tested on: DMS 114 small cell lung
NCI-H460 lung = tested on: NCI-H460 lung
HOP-62 NSCLC = tested on: HOP-62 NSCLC
PC-3 prostate = tested on: PC-3 prostate
HS 578T breast = tested on: HS 578T breast
DU-145 prostate = tested on: DU-145 prostate
NCI/ADR-RES ovarian = tested on: NCI/ADR-RES ovarian
T-47D breast = tested on: T-47D breast
MDA-MB-231 breast = tested on: MDA-MB-231 breast
SNB-75 CNS = tested on: SNB-75 CNS
MCF7 breast = tested on: MCF7 breast
SK-MEL-28 melanoma = tested on: SK-MEL-28 melanoma
MDA-N = tested on: MDA-N
SR leukemia = tested on: SR leukemia
MDA-MB-435 = tested on: MDA-MB-435
RXF 393 renal = tested on: RXF 393 renal

CC(=O)O/C=C(/C=C/OC(C)=O)C(C/C=C(\C)C#CC=C(C)C)OC(C)=O (stereo unspecified)
TGI (A498 renal): > 100 µM
TGI (NCI-H226 lung): > 100 µM
TGI (XF 498 CNS): > 100 µM
TGI (HL-60(TB) leukemia): 42.4 µM
TGI (MOLT-4 leukemia): > 100 µM
TGI (M19-MEL melanoma): 41.7 µM
TGI (SNB-78 CNS): 72.2 µM
TGI (MALME-3M melanoma): > 100 µM
TGI (RXF-631 renal): > 100 µM
TGI (RPMI-8226 leukemia): > 100 µM
TGI (HCC-2998 colon): > 100 µM
TGI (OVCAR-4 ovarian): > 100 µM
TGI (HCT-116 colon): 39 µM
TGI (CCRF-CEM leukemia): > 100 µM
TGI (HCT-15 colon): 50.3 µM
TGI (SK-MEL-5 melanoma): > 100 µM
TGI (HT29 colon): > 100 µM
TGI (HOP-92 NSCLC): 91.3 µM
TGI (SK-OV-3 ovarian): > 100 µM
TGI (SN12C renal): > 100 µM
TGI (ACHN renal): > 100 µM
TGI (LOX IMVI melanoma): 70.7 µM
TGI (OVCAR-3 ovarian): 68.6 µM
TGI (IGROV1 ovarian): 95.6 µM
TGI (CAKI-1 renal): > 100 µM
TGI (EKVX NSCLC): > 100 µM
TGI (OVCAR-5 ovarian): > 100 µM
TGI (SW-620 colon): > 100 µM
TGI (A549 NSCLC): > 100 µM
TGI (LXFL 529 NSCLC): 37.1 µM
TGI (DMS 273 small cell lung): > 100 µM
TGI (UACC-62 melanoma): 77.7 µM
TGI (UO-31 renal): > 100 µM
TGI (M14 melanoma): 98.6 µM
TGI (OVCAR-8 ovarian): > 100 µM
TGI (HOP-18 NSCLC): > 100 µM
TGI (SK-MEL-2 melanoma): > 100 µM
TGI (KM20L2 colon): > 100 µM
TGI (U251 CNS): > 100 µM
TGI (NCI-H522 lung): 73.7 µM
TGI (SF-539 CNS): 54.6 µM
TGI (COLO 205 colon): 68.5 µM
TGI (SF-295 CNS): > 100 µM
TGI (NCI-H23 lung): > 100 µM
TGI (KM12 colon): 61.5 µM
TGI (DLD-1 colon): > 100 µM
TGI (SNB-19 CNS): > 100 µM
TGI (786-0 renal): > 100 µM
TGI (UACC-257 melanoma): > 100 µM
TGI (K-562 leukemia): > 100 µM
TGI (TK-10 renal): > 100 µM
TGI (SF-268 CNS): > 100 µM
TGI (DMS 114 small cell lung): 38.5 µM
TGI (NCI-H460 lung): > 100 µM
TGI (HOP-62 NSCLC): > 100 µM

COc1cc([C@H]2c3cc4c(cc3O[C@@]3(O)COC(=O)[C@@H]23)OCO4)cc(OC)c1OC
TGI (A498 renal): > 100 µM
TGI (PC-3 prostate): > 100 µM
TGI (NCI-H226 lung): > 100 µM
TGI (XF 498 CNS): > 100 µM
TGI (HL-60(TB) leukemia): > 100 µM
TGI (MOLT-4 leukemia): > 100 µM
TGI (M19-MEL melanoma): > 100 µM
TGI (HS 578T breast): > 100 µM
TGI (SNB-78 CNS): > 100 µM
TGI (MALME-3M melanoma): > 100 µM
TGI (RXF-631 renal): > 100 µM
TGI (RPMI-8226 leukemia): > 100 µM
TGI (HCC-2998 colon): > 100 µM
TGI (DU-145 prostate): > 100 µM
TGI (OVCAR-4 ovarian): > 100 µM
TGI (HCT-116 colon): > 100 µM
TGI (CCRF-CEM leukemia): > 100 µM
TGI (HCT-15 colon): > 100 µM
TGI (SK-MEL-5 melanoma): > 100 µM
TGI (HT29 colon): > 100 µM
TGI (HOP-92 NSCLC): > 100 µM
TGI (SK-OV-3 ovarian): > 100 µM
TGI (SN12C renal): > 100 µM
TGI (ACHN renal): > 100 µM
TGI (LOX IMVI melanoma): > 100 µM
TGI (OVCAR-3 ovarian): > 100 µM
TGI (IGROV1 ovarian): > 100 µM
TGI (CAKI-1 renal): > 100 µM
TGI (EKVX NSCLC): > 100 µM
TGI (OVCAR-5 ovarian): > 100 µM
TGI (NCI/ADR-RES ovarian): > 100 µM
TGI (SW-620 colon): > 100 µM
TGI (A549 NSCLC): > 100 µM
TGI (DMS 273 small cell lung): > 100 µM
TGI (UACC-62 melanoma): > 100 µM
TGI (UO-31 renal): > 100 µM
TGI (M14 melanoma): > 100 µM
TGI (T-47D breast): > 100 µM
TGI (MDA-MB-231 breast): > 100 µM
TGI (SNB-75 CNS): > 100 µM
TGI (OVCAR-8 ovarian): > 100 µM
TGI (HOP-18 NSCLC): > 100 µM
TGI (MCF7 breast): > 100 µM
TGI (SK-MEL-28 melanoma): > 100 µM
TGI (SK-MEL-2 melanoma): > 100 µM
TGI (KM20L2 colon): > 100 µM
TGI (MDA-N): > 100 µM
TGI (U251 CNS): > 100 µM
TGI (SR leukemia): > 100 µM
TGI (NCI-H522 lung): > 100 µM
TGI (SF-539 CNS): > 100 µM
TGI (COLO 205 colon): > 100 µM
TGI (MDA-MB-435): > 100 µM
TGI (SF-295 CNS): > 100 µM
TGI (KM12 colon): > 100 µM
TGI (DLD-1 colon): > 100 µM
TGI (SNB-19 CNS): > 100 µM
TGI (786-0 renal): > 100 µM
TGI (UACC-257 melanoma): > 100 µM
TGI (K-562 leukemia): > 100 µM
TGI (TK-10 renal): > 100 µM
TGI (SF-268 CNS): > 100 µM
TGI (DMS 114 small cell lung): > 100 µM
TGI (NCI-H460 lung): > 100 µM
TGI (HOP-62 NSCLC): > 100 µM

Nc1ccn(CCOC(=O)c2ccccc2)c(=O)n1
TGI (A498 renal): > 100 µM
TGI (NCI-H226 lung): > 100 µM
TGI (HL-60(TB) leukemia): > 100 µM
TGI (SNB-78 CNS): > 100 µM
TGI (MALME-3M melanoma): > 100 µM
TGI (RXF-631 renal): > 100 µM
TGI (RPMI-8226 leukemia): > 100 µM
TGI (OVCAR-4 ovarian): > 100 µM
TGI (HCT-116 colon): > 100 µM
TGI (CCRF-CEM leukemia): > 100 µM
TGI (HCT-15 colon): > 100 µM
TGI (SK-MEL-5 melanoma): > 100 µM
TGI (HT29 colon): > 100 µM
TGI (HOP-92 NSCLC): > 100 µM
TGI (SK-OV-3 ovarian): > 100 µM
TGI (SN12C renal): > 100 µM
TGI (ACHN renal): > 100 µM
TGI (LOX IMVI melanoma): > 100 µM
TGI (OVCAR-3 ovarian): > 100 µM
TGI (IGROV1 ovarian): > 100 µM
TGI (CAKI-1 renal): > 100 µM
TGI (EKVX NSCLC): > 100 µM
TGI (OVCAR-5 ovarian): > 100 µM
TGI (SW-620 colon): > 100 µM
TGI (A549 NSCLC): > 100 µM
TGI (LXFL 529 NSCLC): > 100 µM
TGI (DMS 273 small cell lung): > 100 µM
TGI (UACC-62 melanoma): > 100 µM
TGI (UO-31 renal): > 100 µM
TGI (M14 melanoma): > 100 µM
TGI (SNB-75 CNS): > 100 µM
TGI (OVCAR-8 ovarian): > 100 µM
TGI (HOP-18 NSCLC): > 100 µM
TGI (RXF 393 renal): > 100 µM
TGI (SK-MEL-28 melanoma): > 100 µM
TGI (SK-MEL-2 melanoma): > 100 µM
TGI (KM20L2 colon): > 100 µM
TGI (U251 CNS): > 100 µM
TGI (NCI-H522 lung): > 100 µM
TGI (SF-539 CNS): > 100 µM
TGI (COLO 205 colon): > 100 µM
TGI (SF-295 CNS): > 100 µM
TGI (KM12 colon): > 100 µM
TGI (DLD-1 colon): > 100 µM
TGI (786-0 renal): > 100 µM
TGI (UACC-257 melanoma): > 100 µM
TGI (K-562 leukemia): > 100 µM
TGI (TK-10 renal): > 100 µM
TGI (SF-268 CNS): > 100 µM
TGI (NCI-H460 lung): > 100 µM
TGI (HOP-62 NSCLC): > 100 µM
